Measurements taken from US20090093618A1, “STREPTAVIDIN-BIOTIN-LINK ANTIBODY-HAPTEN SYSTEM” (The Regents OF THE UNIVERSITY OF CALIFORNA, priority 2006, published 2009).

Legend:
2D12.5 = test: Relative binding curves of 2D12.5 for Y-DOTA isomers, Y-DTPA and sidechain variants (FIG. 16, 17); design: species or system mouse; conditions: for relative binding affinity for 2D12.5 (in words): coordinated metal Y^3+
Source text: FIG. 16 is a graphical display showing the relative binding curves of 2D12.5 for Y-DOTA isomers and Y-DTPA. 2D12.5 binds both the (R)- and (S)-isomer of 2-(4-nitrobenzyl)-DOTA when the coordinated metal is Y^3+ (the same behavior is expected for the other rare earths). The (S)-isomer confers Λ-helicity, while the (R)-isomer confers Δ-helicity to the acetate arms. […] Y-DOTA (no-sidearm) exists in solution as a racemic mixture of the coordination isomers.
FIG. 17 is a graphical display showing relative binding curves of Y-DOTA molecules with different sidechain locations. […] Evaluation of the crystal structure seems to indicate that shorter substitutions at the position may bind with higher affinity. Substitutions at other locations may yield reasonably high affinities as well. The (5-Amino-2-methoxy-phenyl)-carboxymethyl)-DOTA analyzed in this experiment was racemic, so it is not clear which isomer binds with higher affinity. The low pKa of the carboxymethyl proton makes it difficult to prepare a chirally pure molecule.

antibody 2D12.5 = test: Competitive immunoassay (ELISA) of metal-DOTA complexes relative to Y-DOTA; format: binding, mouse; conditions: 37° C.; for relative binding affinity compared with Y-DOTA (in words): 15 ions tested
Source text: FIG. 13 is graphical display showing the relative binding of metal-DOTA complexes to antibody 2D12.5. A representative set of competitive binding curves obtained from ELISA experiments described in Example 3 below. Error bars (representing the standard error of the mean) are shown, but are generally smaller than the data points.
To determine the metal selectivity of the antibody 2D12.5, a competitive immunoassay was used to measure the binding constants of multiple metal-DOTA complexes relative to Y^3+-DOTA.
We examined the monoclonal antibody 2D12.5, initially developed to bind specifically to Y-DOTA for targeted radiotherapy (see, e.g., Goodwin et al., Cancer Res. 54: 5937-5946 (1994)), in order to determine the scope of its activity. To assess the metal selectivity of antibody 2D12.5, a competitive immunoassay to measure the binding constants of various metal-DOTA complexes relative to the original Y^3+ complex was developed (FIG. 12). Briefly, 2D12.5 was incubated at 37° C. in the presence of immobilized Y-DOTA and a soluble metal-DOTA competitor. The metal-DOTA concentration was varied from μM to pM in order to determine the relative binding affinity of 2D12.5 for each metal chelate in comparison to Y-DOTA. Binding was measured by standard methods known to those of skill in the art. The DOTA analog used to evaluate binding was [S]-2-(p-nitrobenzyl)-DOTA, which is similar to the original antigen.

N85D_G54C 2D12.5 mutant = test: Permanent binding of metal-AABD and metal-NBD complexes to 2D12.5 Fab mutant N85D_G54C (Western blot)
Protocol: Metallation of Chelates with stable metal cations. Metals tested in this experiment included Y, La, Lu, Sr and Sc. Stock chelate concentrations were measured using a Co-57 metal binding assay (Meares et al., Anal. Biochem. 142:68-78, 1984). Stock metal solutions (approximately 0.2 M) were prepared by dissolving the appropriate gravimetrically measured rare earth chloride salt in 0.05 M HCl. As an example, YCl3 (2.5 equivalents) was added to 25 μL of NBD ([…]) dissolved in 0.1 M tetramethylammonium acetate, and the pH was adjusted to 5 by the addition of triethylamine. The metallation was allowed to proceed overnight at 50° C. Samples were promptly frozen at −70° C., and metallation efficiency was assessed using a competitive metal-binding assay with Co-57.^3 Excess metal was scavenged with DTPA, which has very low affinity for the antibody (<<1%).
Metal-AABD and metal-NBD complexes were incubated with 2D12.5 Fab mutant N85D_G54C and samples denatured, reduced and separated by SDS-PAGE, as described for Y-90 in the previous examples. […]

Row | Compound | relative binding affinity for 2D12.5 (in words) (2D12.5) | relative binding affinity compared with Y-DOTA (in words) (antibody 2D12.5) | other results
1 | O=C(O)CN1CCN(CC(=O)O)CCN(CC(=O)O)[C@H](Cc2ccc([N+](=O)[O-])cc2)CN(CC(=O)O)CC1 [(R)-isomer of 2-(4-nitrobenzyl)-DOTA, 2-(4-nitrobenzyl)-DOTA] | decreases less than an order of magnitude |  | 
2 | O=C(O)CN(CCN(CC(=O)O)CC(=O)O)CCN(CC(=O)O)CC(=O)O [DTPA] |  |  | affinity for the antibody (2D12.5; DTPA used to scavenge excess metal): < 1%
3 | O=C([O-])CN1CCN(CC(=O)[O-])CCN(CC(=O)[O-])CCN(CC(=O)[O-])CC1.[Eu+3] [Eu^3+] |  | strongest binders | 
4 | O=C([O-])CN1CCN(CC(=O)[O-])CCN(CC(=O)[O-])CCN(CC(=O)[O-])CC1.[Gd+3] [Gd-DOTA] |  | bind more tightly than the original Y^3+ complex | relative binding affinity compared with Y-DOTA (in words) (antibody 2D12.5; listed as Gd^3+): strongest binders
5 | O=C(O)CN1CCN(CC(=O)O)CCN(CC(=O)O)C(Cc2ccc([N+](=O)[O-])cc2)CN(CC(=O)O)CC1 (stereo not shown) [NBD, [S]-2-(p-nitrobenzyl)-DOTA] |  |  | permanent bond formation with N85D_G54C 2D12.5 mutant (N85D_G54C 2D12.5 mutant; Western blot, hybridoma-derived 2D12.5 as 1° stain): negative
6 | O=C([O-])CN1CCN(CC(=O)[O-])CCN(CC(=O)[O-])CCN(CC(=O)[O-])CC1.[Tb+3] [Tb-DOTA] |  | strongest binders | 
7 | O=C([O-])CN1CCN(CC(=O)[O-])CCN(CC(=O)[O-])CCN(CC(=O)[O-])CC1.[Y+3] [Y-DOTA] | between that observed for the (S)- and (R)-isomers |  | Kd (antibody 2D12.5; DOTA analog used was [S]-2-(p-nitrobenzyl)-DOTA): 10 nM
8 | O=C(O)CN1CCN(CC(=O)O)CCN(CC(=O)O)[C@@H](Cc2ccc([N+](=O)[O-])cc2)CN(CC(=O)O)CC1 [Y-NBD, (S)-2-(4-nitrobenzyl)-DOTA] | clearly stronger |  | relative binding affinity for 2D12.5 (in words) (2D12.5; listed as (S)-isomer of 2-(4-nitrobenzyl)-DOTA): preferred isomer for binding; binding strength of NBD complexes among the rare earths (N85D_G54C 2D12.5 mutant; Western blots): one of the strongest binders
9 | (5-Amino-2-methoxyphenyl)-carboxymethyl)-DOTA | still sufficiently strong |  | 
